According to patent US10219516B2, “Molecules having pesticidal utility, and intermediates, compositions, and processes, related thereto” (priority 2015, dated 2019):
Like-named read-outs stand apart in the source and are kept apart here.

How the values were obtained:
Type in all cases: in vivo
[1] = test system: Beet Armyworm (Spodoptera exigua, LAPHEG); test: Bioassay on Beet Armyworm (BAW), 128-well diet tray assay
Outline: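 Diet in each of eight wells received 50 μg/cm^2 of test molecule (90:10 acetone-water, dried), then one to five second-instar larvae were added. Mortality (%) was scored after five to seven days at 25° C. under 14:10 light-dark and averaged across the wells.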

[2] = test system: Cabbage Looper (Trichoplusia ni, TRIPNI); test: Bioassay on Cabbage Looper (CL), 128-well diet tray assay; details: Trichoplusia ni
Outline: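 Second-instar larvae, one to five per well, were placed on artificial diet surface-treated with 50 μg/cm^2 test molecule applied in 90:10 acetone-water and dried, eight wells per molecule. Trays were covered, vented and held at 25° C., 14:10 light-dark for five to seven days; percent mortality per well was averaged.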

[3] = test system: Yellow Fever Mosquito (Aedes aegypti, AEDSAE); test: Bioassay on Yellow Fever Mosquito (YFM), 96-well plate larval assay; details: for YFM rating: Yellow Fever Mosquito, 96-well plate larval assay; for YFM (Biological Results, rating): Species YFM (Yellow Fever Mosquito)
Outline: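 Aedes aegypti larvae (about 1 day old) in liver-powder water were added to plates dispensed from DMSO master plates (4000 ppm stock) diluted with 90:10 water/acetone; six replicate plates per master. Lidded plates were held at room temperature for 3 days, then each well was scored for mortality.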

[4] = Beet Armyworm, 128-well diet tray assay, read-out: BAW rating
[5] = Cabbage Looper, 128-well diet tray assay, read-out: CL rating
[6] = Species BAW (Beet Armyworm), read-out: BAW (Biological Results, rating)
[7] = Species CL (Cabbage Looper), read-out: CL (Biological Results, rating)

Structure (SMILES) | pest or weed control at 50 µg/cm2 [1, 4] | pest or weed control at 50 µg/cm2 [2, 5] | YFM rating [3] | pest or weed control at 50 µg/cm2 [1, 6] | pest or weed control at 50 µg/cm2 [2, 7] | YFM (Biological Results, rating) [3]
Nc1ccc(F)c(NC(=O)c2cc(NC(=O)[C@H]3[C@H](c4cc(Cl)c(Cl)c(Cl)c4)C3(Cl)Cl)ccc2Cl)c1 [F429, N-(5-Amino-2-fluorophenyl)-2-chloro-5-((1R,3R)-2,2-dichloro-3-(3,4,5-trichlorophenyl)cyclopropane-1-carboxamido)benzamide] | 50 to 100% | 50 to 100% | A (80-100) |  |  | 
CNc1ccc(NC(=O)c2cc(NC(=O)[C@H]3[C@H](c4cc(Cl)cc(Cl)c4)C3(Cl)Cl)ccc2Cl)cc1C (relative stereo) [F206, trans-2-Chloro-5-(2,2-dichloro-3-(3,5-dichlorophenyl)cyclopropane-1-carboxamido)-N-(3-methyl-4-(methylamino)phenyl)benzamide] |  |  |  | 50 to 100% | 50 to 100% | A (80-100)
COc1ccc(NC(=O)c2cc(NC(=O)[C@H]3[C@H](c4ccc(F)c(Cl)c4)C3(Cl)Cl)ccc2Cl)cn1 (relative stereo) [F551, 2-Chloro-5-(trans-2,2-dichloro-3-(3-chloro-4-fluorophenyl)cyclopropane-1-carboxamido)-N-(6-methoxypyridin-3-yl)benzamide] | 50 to 100% | 50 to 100% | A (80-100) |  |  | 
O=C(Nc1ccc(Cl)cc1F)c1cc(NC(=O)C2C(c3cc(Cl)cc(Cl)c3)C2(Cl)Cl)ccc1Cl (stereo not drawn) [PF116, 2-Chloro-N-(4-chloro-2-fluorophenyl)-5-(trans)-2,2-dichloro-3-(3,5-dichlorophenyl)cyclopropane-1-carboxamido)benzamide] | 50 to 100% | 50 to 100% | B (More than 0-Less than 80) |  |  | 
Nc1cc(NC(=O)c2cc(NC(=O)[C@H]3[C@H](c4ccc(F)c(Cl)c4)C3(Cl)Cl)ccc2Cl)c(F)cc1F [F403, N-(5-Amino-2,4-difluorophenyl)-2-chloro-5-((1R,3R)-2,2-dichloro-3-(3-chloro-4-fluorophenyl)cyclopropane-1-carboxamido)benzamide] | 50 to 100% | 50 to 100% | A (80-100) |  |  | 
Nc1ccc(F)cc1NC(=O)c1cc(NC(=O)[C@H]2[C@H](c3cc(Cl)cc(Cl)c3)C2(Cl)Cl)ccc1Cl [F373, N-(2-Amino-5-fluorophenyl)-2-chloro-5-((1R,3R)-2,2-dichloro-3-(3,5-dichlorophenyl)cyclopropane-1-carboxamido)benzamide] | 50 to 100% | 50 to 100% | A (80-100) |  |  | 
COC(=O)CNc1ccc(NC(=O)c2cc(NC(=O)[C@H]3[C@H](c4cc(Cl)cc(Cl)c4)C3(Cl)Cl)ccc2Cl)c(C)c1 (relative stereo) [F288, trans-methyl (4-(2-chloro-5-(2,2-dichloro-3-(3,5-dichlorophenyl)cyclopropane-1-carboxamido)benzamido)-3-methylphenyl)glycinate] |  |  |  | 50 to 100% | 50 to 100% | A (80-100)
Nc1cc(F)cc(F)c1NC(=O)c1cc(NC(=O)[C@H]2[C@H](c3cc(Cl)c(Cl)c(Cl)c3)C2(Cl)Cl)ccc1Cl [F408, N-(2-Amino-4,6-difluorophenyl)-2-chloro-5-((1R,3R)-2,2-dichloro-3-(3,4,5-trichlorophenyl)cyclopropane-1-carboxamido)benzamide] | 50 to 100% | 50 to 100% | A (80-100) |  |  | 
O=C(Nc1c[nH]c(=O)[nH]c1=O)c1cc(NC(=O)[C@H]2[C@H](c3cc(Cl)cc(Cl)c3)C2(Cl)Cl)ccc1Cl (relative stereo) [PF139, trans-2-Chloro-5-(2,2-dichloro-3-(3,5-dichlorophenyl)cyclopropane-1-carboxamido)-N-(2,4-dioxo-1,2,3,4-tetrahydropyrimidin-5-yl)benzamide] | 50 to 100% | 50 to 100% | B (More than 0-Less than 80) |  |  | 
Nc1c(F)ccc(NC(=O)c2cc(NC(=O)[C@H]3[C@H](c4cc(Cl)cc(Cl)c4)C3(Cl)Cl)ccc2Cl)c1F [F313, N-(3-Amino-2,4-difluorophenyl)-2-chloro-5-((1R,3R)-2,2-dichloro-3-(3,5-dichlorophenyl)cyclopropane-1-carboxamido)benzamide] |  |  |  | 50 to 100% | 50 to 100% | A (80-100)
N#Cc1cc(F)ccc1NC(=O)c1cccc(NC(=O)[C@H]2[C@H](c3ccc(Cl)c(Cl)c3)C2(Cl)Cl)c1 (relative stereo) [F268, trans-N-(2-Cyano-4-fluorophenyl)-3-(2,2-dichloro-3-(3,4-dichlorophenyl)cyclopropane-1-carboxamido)benzamide] |  |  |  | 50 to 100% | 50 to 100% | A (80-100)
CNc1cc(NC(=O)c2cc(NC(=O)[C@H]3[C@H](c4cc(Cl)cc(Cl)c4)C3(Cl)Cl)ccc2Cl)ccc1F (relative stereo) [F239, trans-2-Chloro-5-(2,2-dichloro-3-(3,5-dichlorophenyl)cyclopropane-1-carboxamido)-N-(4-fluoro-3-(methylamino)phenyl)benzamide] |  |  |  | 50 to 100% | 50 to 100% | A (80-100)
O=C(Nc1ccc(NC(=O)C2CC2)cc1)c1cc(NC(=O)[C@H]2[C@H](c3cc(Cl)cc(Cl)c3)C2(Cl)Cl)ccc1Cl (relative stereo) [PF107, trans-2-Chloro-N-(4-(cyclopropane-1-carboxamido)phenyl)-5-(2,2-dichloro-3-(3,5-dichlorophenyl)cyclopropane-1-carboxamido)benzamide] | 50 to 100% | 50 to 100% | A (80-100) |  |  | 
O=C(Nc1ccc(F)cc1F)c1cc(NC(=O)[C@H]2[C@H](c3cc(Cl)cc(C(F)F)c3)C2(Cl)Cl)ccc1Cl (relative stereo) [F558, 2-Chloro-5-(trans-2,2-dichloro-3-(3-chloro-5-(difluoromethyl)phenyl)cyclopropane-1-carboxamido)-N-(2,4-difluorophenyl)benzamide] | 50 to 100% | 50 to 100% | A (80-100) |  |  | 
Nc1c(F)cc(F)cc1NC(=O)c1cc(NC(=O)[C@H]2[C@H](c3cc(Cl)c(Cl)c(Cl)c3)C2(Cl)Cl)ccc1Cl [F404, N-(2-Amino-3,5-difluorophenyl)-2-chloro-5-((1R,3R)-2,2-dichloro-3-(3,4,5-trichlorophenyl)cyclopropane-1-carboxamido)benzamide] | 50 to 100% | 50 to 100% | A (80-100) |  |  | 
O=C(Nc1ccc(F)cc1[N+](=O)[O-])c1cc(NC(=O)[C@H]2[C@H](c3ccc(F)c(Cl)c3)C2(Cl)Cl)ccc1Cl [F557, 2-Chloro-5-((1R,3R)-2,2-dichloro-3-(3-chloro-4-fluorophenyl)cyclopropane-1-carboxamido)-N-(4-fluoro-2-nitrophenyl)benzamide] | 50 to 100% | 50 to 100% | A (80-100) |  |  | 
CN(C(=O)c1cc(NC(=O)[C@H]2[C@H](c3cc(Cl)cc(Cl)c3)C2(Cl)Cl)ccc1F)c1ccccc1 (relative stereo) [F66, trans-5-(2,2-Dichloro-3-(3,5-dichlorophenyl)cyclopropane-1-carboxamido)-2-fluoro-N-methyl-N-phenylbenzamide] |  |  |  | 50 to 100% | 50 to 100% | A (80-100)
Cc1cc(F)c(NC(=O)c2cc(NC(=O)[C@H]3[C@H](c4cc(Cl)cc(Cl)c4)C3(Cl)Cl)ccc2Cl)c(C#N)c1 (relative stereo) [F300, 2-Chloro-N-(2-cyano-6-fluoro-4-methylphenyl)-5-(trans-2,2-dichloro-3-(3,5-dichlorophenyl)cyclopropane-1-carboxamido)benzamide] |  |  |  | 50 to 100% | 50 to 100% | A (80-100)
Nc1cc(F)c(NC(=O)c2cc(NC(=O)[C@H]3[C@H](c4cc(Cl)cc(Cl)c4)C3(Cl)Cl)ccc2Cl)cc1F [F568, trans-N-(4-Amino-2,5-difluorophenyl)-2-chloro-5-((1R,3R)-2,2-dichloro-3-(3,5-dichlorophenyl)cyclopropane-1-carboxamido)benzamide] | 50 to 100% | 50 to 100% | A (80-100) |  |  | 
O=C(Nc1ccc(F)cc1F)c1cc(NC(=O)[C@H]2[C@H](c3ccc(Br)c(F)c3)C2(Cl)Cl)ccc1Cl (relative stereo) [F364, 5-(trans)-(3-(4-Bromo-3-fluorophenyl)-2,2-dichlorocyclopropane-1-carboxamido)-2-chloro-N-(2,4-difluorophenyl)benzamide] |  |  |  | 50 to 100% | 50 to 100% | A (80-100)
Cc1cc(N)ccc1NC(=O)c1cc(NC(=O)[C@H]2[C@H](c3cc(Cl)cc(Br)c3)C2(Cl)Cl)ccc1Cl (relative stereo) [F337, N-(4-Amino-2-methylphenyl)-5-(trans-3-(3-bromo-5-chlorophenyl)-2,2-dichlorocyclopropane-1-carboxamido)-2-chlorobenzamide] |  |  |  | 50 to 100% | 50 to 100% | A (80-100)
